Test results as given in US20250108099A1, “Ovomucoid for use in a method of managing blood coagulation” (Solution Shop AG, priority 2022, published 2025).

Legend:
Format in all cases: biochemical
Thrombin generation [1] = experiment: Thrombin generation (calibrated automated thrombogram) in normal non-defibrinated plasma, presence of endogenous fibrinogen; settings: for effect on extrinsic-thrombin generation: extrinsic (5 pM TF), ovomucoid/Trasylol 50-350 U/ml, Cyklokapron 1-8 mg; for effect on thrombin generation / coagulation system: low TF concentration (0.5 pM)
Source text: (§1) This pilot bioequivalence study aims at investigating the effect of duck egg ovomucoid on the clotting system and assessed its activity against the known anti-thrombolytic agents (Trasylol® “aprotinin” and Cyklokapron” “transamic acid”) by means of the calibrated automated thrombogram (CAT). The CAT method is a functional sensitive assay which detects any hyper- or hypocoagulability in the clotting system, disorders in platelet function and follows up therapy with anti-haemophilia supplements, anticoagulants and antithrombotics.
(§2) An optimal concentration of procoagulant phospholipids was used (4 μM). Two concentrations of tissue factor (TF) were added, 5 pM to study the classical extrinsic pathway and 0.5 pM to explore a pathway in which also the antihaemophilic factors (Factor VIII and IX) play a role.
Normally fibrin (-ogen) is present during thrombin generation, therefore the above experiments were carried out in normal non-defibrinated plasma. Extrinsic-thrombin generation was conducted in normal plasma spiked with increasing amounts of duck egg ovomucoid (50-350 U/ml) and compared to Trasylol (50-350 U/ml) and to Cyklokapron (1-8 mg).

Thrombin generation [2] = experiment: Thrombin generation (calibrated automated thrombogram) in defibrinated normal pooled plasma, absence of fibrinogen; settings: 0.5 pM TF, ovomucoid/Trasylol 50-350 U/ml, Cyklokapron 1-8 mg/ml
Source text: as §1
In a fibrinolytic patient fibrin is unstable.
as §2

plasmin = molecular target: T1, plasmin (Homo sapiens, UniProt P00747); experiment: Plasmin inhibition in buffered plasmin solution with chromogenic substrate S-2251 (Example 2); settings: 37° C.
T1 construct: a buffered plasmin solution was used
Description: In order to analyse plasmin inhibition a buffered plasmin solution was used. The solution was incubated with duck egg ovomucoid or cyklocapron as a control. The solutions were incubated at 37° C. and the chromogenic plasmin substrate S-2251 was added and plasmin activity was measured.

T1 sequence (P00747 97-580 limits assumed): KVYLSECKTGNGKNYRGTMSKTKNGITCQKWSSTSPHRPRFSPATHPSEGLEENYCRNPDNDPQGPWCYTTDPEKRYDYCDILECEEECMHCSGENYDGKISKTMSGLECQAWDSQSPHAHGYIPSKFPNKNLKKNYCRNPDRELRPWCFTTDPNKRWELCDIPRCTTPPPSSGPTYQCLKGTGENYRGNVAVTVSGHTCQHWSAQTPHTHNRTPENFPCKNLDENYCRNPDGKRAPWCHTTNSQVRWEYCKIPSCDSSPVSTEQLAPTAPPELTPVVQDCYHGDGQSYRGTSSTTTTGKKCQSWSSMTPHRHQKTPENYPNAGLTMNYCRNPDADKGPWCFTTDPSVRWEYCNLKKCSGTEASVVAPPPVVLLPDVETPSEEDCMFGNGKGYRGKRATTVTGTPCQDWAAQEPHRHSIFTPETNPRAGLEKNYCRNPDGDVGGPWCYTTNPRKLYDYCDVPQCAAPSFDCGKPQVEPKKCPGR
T1 sequence (P00747 581-810 limits assumed): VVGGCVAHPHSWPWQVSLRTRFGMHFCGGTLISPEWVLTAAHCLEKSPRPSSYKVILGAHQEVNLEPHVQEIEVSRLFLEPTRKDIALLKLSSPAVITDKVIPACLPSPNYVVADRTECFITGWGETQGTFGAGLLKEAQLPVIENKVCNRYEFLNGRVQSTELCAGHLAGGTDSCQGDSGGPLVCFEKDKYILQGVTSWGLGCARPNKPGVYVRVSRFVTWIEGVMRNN

Compound	effect on extrinsic-thrombin generation (Thrombin generation [1])	effect on thrombin generation / coagulation system (Thrombin generation [1])	effect on thrombin generation (Thrombin generation [2])	inhibitory effect on plasmin (plasmin)
NC[C@H]1CC[C@H](C(=O)O)CC1 [Cyklokapron, transamic acid]	hardly any activity	procoagulant	increased the thrombin generation in a dose-dependent manner	inhibitory effect on plasmin
aprotinin [Trasylol]	hardly any activity	dose-dependently anticoagulant	inhibited thrombin generation dose-dependently	
